According to patent US20070167377A1, “Inhibitors of glycinamide ribonucleotide transformylase” (priority 2002, published 2007):
Entries after “also recorded” stand apart in the source; their conditions may differ.

Tests used:
Solubility = assay type: physicochemical; details: pH 7-8
DHFR = DHFR (Escherichia coli, UniProt P0ABQ4); test: DHFR inhibition (101, 102); assay type: biochemical
CCRF-CEM cell line = test: CCRF-CEM cytotoxic assay; assay type: cell-based, human; details: Homo sapiens
Description: (§1) The cytotoxic activity of the compounds was measured using CCRF-CEM human leukemia cells, as described previously (Boger, D. L., et al., Bioorg. Med. Chem. 1997, 5, 1847-1852). Two mutant cell lines, CCRF-CEM/MTX and CCRF-CEM/FPGS^− were used to determine the dependence on the reduced folate active transport system and folylpolyglutamate synthetase (FPGS), respectively (Jansen, G., et al., Cancer Res. 1989, 49, 2455-2459).

[1] = target: thymidylate synthetase (TS) (Homo sapiens, UniProt P04818); test: Thymidylate synthetase inhibition; assay type: biochemical
E. coli GAR Tfase = E. coli GAR Tfase (Escherichia coli, UniProt P08179); test: E. coli GAR Tfase inhibition; assay type: biochemical; details: E. coli GAR Tfase
Description: (§2) GAR and AICAR Tfase inhibition studies were conducted as previously detailed^28 with the exception that the AICAR Tfase inhibition was conducted in the absence of 5 mM β-mercaptoethanol and screened with 10 nM enzyme, […] inhibitor and […] of cofactor. The DHFR inhibition study was conducted as previously detailed with 10 nM enzyme, […] H2F, […] NADPH and […] inhibitor.
The Ki values for the folate analogues were measured as previously described (Boger, D. L., et al., Bioorg. Med. Chem. 1997, 5, 1817-1830). Briefly, each compound was dissolved in dimethyl sulfoxide (DMSO) and then diluted in assay buffer. […] Thus, all assays were conducted by mixing 10 μM 10-formyl-5,8-dideazafolate (fDDF), 20 μM inhibitor in total volume of 1 mL buffer (0.1 M HEPES, pH 7.5) at 26° C., and the reaction initiated by the addition of 76 nM E. coli or human GAR Tfase. The assay monitors the deformylation of fDDF (Δε=18.9 mM^−1 cm^−1 at 295 nm) resulting from the transfer of the formyl group to β-GAR.

CCRF-CEM/MTX cell line = test: Cytotoxic assay, reduced folate carrier deficient mutant; assay type: cell-based, human; details: impaired reduced folate carrier
Description: as §1

Chemical stability = assay type: physicochemical
[2] = system: CCRF-CEM/FPGS^− cell line; test: Cytotoxic assay, FPGS deficient mutant; assay type: cell-based, human; details: lacks folylpolyglutamate synthase
Description: as §1

human AICAR Tfase = human AICAR Tfase (Homo sapiens, UniProt P31939); test: AICAR Tfase inhibition; assay type: biochemical
Description: as §2

With `Nc1nc(N)c(CCCC(C(=O)C(F)(F)F)c2ccc(C(=O)N[C@@H](CCC(=O)O)C(=O)O)cc2)c(=O)[nH]1` (stereo partly drawn) [Compound 101, N-{4-[4-(2,4-Diamino-6-oxo-1,6-dihydropyrimidin-5-yl)-1-(2,2,2-trifluoroacetyl)butyl]benzoyl}-L-glutamic acid] the solubility (Solubility) was “excellent”, the “inhibition of DHFR (in words)” value (DHFR) was “inactive” and the Ki (DHFR; DHFR) was greater than 100 µM. The IC50 (CCRF-CEM cell line; in the presence of media purines) was greater than 100 µM, the IC50 (CCRF-CEM cell line; purines (hypoxanthine) absent in the media) was 0.016 µM and the “inhibition of TS (in words)” value [1] was “inactive”. The Ki ([1]; TS) was greater than 100 µM, the Ki (E. coli GAR Tfase) was 1.9 µM and the “cytotoxic activity (in words)” value (CCRF-CEM/MTX cell line) was “lost activity”. The “chemical stability (in words)” value (Chemical stability) was “chemically stable”, the “stability at pH 7-8” value (Chemical stability; pH 7-8 buffers in the presence of air, 7 days) was “excellent; also recorded: no decomposition or reaction” and the “cytotoxic activity (in words)” value [2] was “lacked or lost activity”. For the same compound, the “inhibition of AICAR Tfase (in words)” value (human AICAR Tfase) was “inactivity; also recorded: inactive” and the Ki (human AICAR Tfase; AICAR Tfase) was greater than 100 µM.
